The conditions of data set [1]: children; cited from earlier work.
The procedure of data set [2]: In this Example, Human Ezrin Peptide therapy comprised oral administration of a 2 mg/2 ml aqueous solution of HEP1 to HCV patients who were also infected with HIV. The patients were treated twice a day for 10 days followed by once a day for 20 days in the absence of any other anti-HIV or anti-HCV therapy. Blood samples from patients were analysed before treatment and 30 days after the end of the 30 day treatment period.

Where a SMILES comes first, the peptide text is derived from it.

As to `CC(C)[C@H](NC(=O)[C@@H](NC(=O)[C@H](CCC(=O)O)NC(=O)[C@H](CCCNC(=N)N)NC(=O)[C@H](CCCNC(=N)N)NC(=O)[C@H](CCCCN)NC(=O)[C@H](CCCCN)NC(=O)[C@H](CCC(=O)O)NC(=O)[C@@H](N)[C@@H](C)O)[C@@H](C)O)C(=O)N[C@@H](CCC(=O)O)C(=O)N[C@@H](CCCNC(=N)N)C(=O)N[C@@H](CCC(=O)O)C(=O)N[C@@H](CCCCN)C(=O)N[C@@H](CCC(=O)O)C(=O)O` [HEP1] (H-TEKKRRETVEREKE-OH), in data set [1], the “side-effects or adverse reactions” value is “No side-effects or adverse reactions”. In data set [2] (HIV+HCV infected patients), the CD4/CD8 index entry is “improved”, the “average increase of CD4 cells” value was determined as 70 cells per microlitre and the “patients with increased CD4 cells” value is listed as 18 of 19. In addition, the “side effects or adverse events” value in data set [2] (during treatment with HEP1) is “No side effects or adverse events were observed”.
